{
  "source": "patent US20080213415A1",
  "about": "“Treatment of Glaucoma and Diabetic Retinopathy with Morinda Citrifolia Enhanced Formulations” (priority 2007, published 2008)",
  "key": {"[1]": {"molecular_target": "T1, Fatty acid amide hydrolase (FAAH) (Rattus norvegicus, UniProt P97612)", "T1 sequence (P97612 1-579)": "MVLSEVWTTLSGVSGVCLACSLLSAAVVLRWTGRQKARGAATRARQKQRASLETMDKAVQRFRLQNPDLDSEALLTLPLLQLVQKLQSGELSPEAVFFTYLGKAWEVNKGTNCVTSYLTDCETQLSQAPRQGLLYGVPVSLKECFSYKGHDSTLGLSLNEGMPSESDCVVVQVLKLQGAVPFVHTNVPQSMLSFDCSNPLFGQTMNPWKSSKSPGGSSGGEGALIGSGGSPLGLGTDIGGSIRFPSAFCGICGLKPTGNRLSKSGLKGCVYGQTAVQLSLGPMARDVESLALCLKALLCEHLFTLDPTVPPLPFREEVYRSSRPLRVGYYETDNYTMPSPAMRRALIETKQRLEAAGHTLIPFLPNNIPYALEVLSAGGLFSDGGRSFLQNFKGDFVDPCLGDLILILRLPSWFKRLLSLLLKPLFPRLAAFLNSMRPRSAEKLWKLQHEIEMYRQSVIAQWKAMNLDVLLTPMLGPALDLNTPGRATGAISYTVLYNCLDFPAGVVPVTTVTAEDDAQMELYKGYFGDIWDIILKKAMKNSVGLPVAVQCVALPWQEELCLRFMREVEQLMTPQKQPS", "details": "reference compound, historical value; cited from earlier work"}, "[2]": {"molecular_target": "T1, Fatty acid amide hydrolase (FAAH)", "experiment": "Fatty acid amide hydrolase (FAAH) inhibition, quantitation of labelled ethanolamine", "type": "biochemical, Wistar Rat", "details": "reference compound, concurrent"}},
  "note": "Where two headings read alike, the source gives them in different places.",
  "data": [
    {"smiles": "CCCCCCCC/C=C\\CCCCCCCC(=O)C(F)(F)F", "note": "[Oleyl Trifluormethyl Ketone]", "values": [
      {"measurement": "IC50", "setting": "[1]", "result": 29, "unit": "nM"},
      {"measurement": "IC50", "setting": "[2]; batch 144029", "result": 23.5, "unit": "nM"},
      {"measurement": "IC50", "setting": "[2]; batch 144988", "result": 35.5, "unit": "nM"}
    ]}
  ]
}
